Source: patent US8691187B2, “Imaging agents for detecting neurological disorders” (Eli Lilly and Company, priority 2009, dated 2014)

Columns and labels:
[1] = biological target: AchE (Homo sapiens, UniProt P22303); assay: AchE activity; type: biochemical
[2] = biological target: T1, MAO-B (Homo sapiens, UniProt P27338); assay: MAO inhibition, MAO-B; type: biochemical
T1 sequence (P27338 1-520): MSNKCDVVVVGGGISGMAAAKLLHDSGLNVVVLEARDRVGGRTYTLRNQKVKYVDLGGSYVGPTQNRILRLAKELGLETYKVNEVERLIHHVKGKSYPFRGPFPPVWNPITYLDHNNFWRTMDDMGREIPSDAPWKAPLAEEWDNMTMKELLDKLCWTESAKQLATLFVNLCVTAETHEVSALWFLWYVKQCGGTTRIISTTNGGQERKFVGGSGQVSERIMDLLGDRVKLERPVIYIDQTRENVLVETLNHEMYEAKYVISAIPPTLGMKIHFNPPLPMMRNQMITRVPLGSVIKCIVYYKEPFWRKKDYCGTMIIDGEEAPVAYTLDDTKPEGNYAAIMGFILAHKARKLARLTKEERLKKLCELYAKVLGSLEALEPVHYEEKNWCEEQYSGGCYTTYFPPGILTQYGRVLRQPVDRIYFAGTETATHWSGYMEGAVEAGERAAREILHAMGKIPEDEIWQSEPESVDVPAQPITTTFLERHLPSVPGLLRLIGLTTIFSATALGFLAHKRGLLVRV

[3] = test system: tau/Ab; assay: selectivity (tau/Ab); type: binding
[4] = biological target: T2, Bombesin BB3 (Homo sapiens, UniProt P32247); assay: CNS selectivity panel, Bombesin BB3; type: binding; conditions: 10 uM (printed in T777 column)
T2 sequence (P32247 1-399): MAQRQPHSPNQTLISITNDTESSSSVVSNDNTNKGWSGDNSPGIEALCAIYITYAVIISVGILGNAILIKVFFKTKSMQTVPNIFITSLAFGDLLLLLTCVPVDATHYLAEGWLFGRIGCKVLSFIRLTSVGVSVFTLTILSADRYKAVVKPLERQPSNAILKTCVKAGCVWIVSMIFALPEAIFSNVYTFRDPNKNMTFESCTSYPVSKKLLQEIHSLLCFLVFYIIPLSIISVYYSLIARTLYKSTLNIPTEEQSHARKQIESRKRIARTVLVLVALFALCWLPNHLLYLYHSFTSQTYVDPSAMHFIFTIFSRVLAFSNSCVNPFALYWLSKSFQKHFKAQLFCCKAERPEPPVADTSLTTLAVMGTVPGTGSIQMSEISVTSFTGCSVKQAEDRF

[5] = biological target: Norepinephrine transp. (Homo sapiens, UniProt P23975); assay: CNS selectivity panel, norepinephrine transporter; type: binding
Chain of Norepinephrine transp. (P23975 whole entry): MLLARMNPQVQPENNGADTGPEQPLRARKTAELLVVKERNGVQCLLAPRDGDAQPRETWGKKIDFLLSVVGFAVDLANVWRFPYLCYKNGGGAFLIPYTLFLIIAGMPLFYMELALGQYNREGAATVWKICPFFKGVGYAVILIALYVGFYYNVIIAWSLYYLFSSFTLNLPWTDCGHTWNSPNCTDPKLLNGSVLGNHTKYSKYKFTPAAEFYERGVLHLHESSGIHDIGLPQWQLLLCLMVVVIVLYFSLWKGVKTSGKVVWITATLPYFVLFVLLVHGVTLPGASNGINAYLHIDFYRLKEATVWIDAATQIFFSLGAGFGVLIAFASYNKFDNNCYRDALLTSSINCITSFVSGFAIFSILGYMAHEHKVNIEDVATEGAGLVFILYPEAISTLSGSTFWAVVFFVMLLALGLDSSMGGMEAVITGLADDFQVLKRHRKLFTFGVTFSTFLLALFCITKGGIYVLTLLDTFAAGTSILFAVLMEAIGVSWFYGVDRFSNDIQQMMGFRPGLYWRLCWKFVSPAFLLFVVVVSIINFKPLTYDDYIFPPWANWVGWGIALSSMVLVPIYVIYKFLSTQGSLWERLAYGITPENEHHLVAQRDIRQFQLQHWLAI

[6] = test system: Monoamine transp.; assay: CNS selectivity panel, monoamine transporter; type: binding
[7] = test system: human hepatocytes; assay: Stability in human hepatocytes; type: in vitro ADME
[8] = biological target: T3, MAO-A (Homo sapiens, UniProt P21397); assay: MAO inhibition, MAO-A; type: biochemical
T3 sequence (P21397 1-527): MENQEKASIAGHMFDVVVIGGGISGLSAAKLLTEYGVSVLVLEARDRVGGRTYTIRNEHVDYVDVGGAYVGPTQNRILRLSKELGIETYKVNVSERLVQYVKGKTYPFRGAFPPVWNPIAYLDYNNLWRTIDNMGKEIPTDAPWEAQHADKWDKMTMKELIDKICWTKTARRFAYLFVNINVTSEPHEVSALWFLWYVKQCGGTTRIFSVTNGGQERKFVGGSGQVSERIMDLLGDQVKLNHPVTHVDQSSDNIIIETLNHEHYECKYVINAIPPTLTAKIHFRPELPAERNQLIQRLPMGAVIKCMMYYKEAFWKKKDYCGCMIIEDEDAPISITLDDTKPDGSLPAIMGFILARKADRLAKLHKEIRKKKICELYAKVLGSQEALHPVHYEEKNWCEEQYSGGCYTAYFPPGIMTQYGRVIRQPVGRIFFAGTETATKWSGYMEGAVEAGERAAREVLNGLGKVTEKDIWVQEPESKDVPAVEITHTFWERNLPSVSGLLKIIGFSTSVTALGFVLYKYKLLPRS

[9] = biological target: synthetic tau (Homo sapiens, UniProt P10636); assay: Synthetic tau Kd (F-18 labeled and cold compound, filtration); type: binding
Chain of synthetic tau (P10636 whole entry): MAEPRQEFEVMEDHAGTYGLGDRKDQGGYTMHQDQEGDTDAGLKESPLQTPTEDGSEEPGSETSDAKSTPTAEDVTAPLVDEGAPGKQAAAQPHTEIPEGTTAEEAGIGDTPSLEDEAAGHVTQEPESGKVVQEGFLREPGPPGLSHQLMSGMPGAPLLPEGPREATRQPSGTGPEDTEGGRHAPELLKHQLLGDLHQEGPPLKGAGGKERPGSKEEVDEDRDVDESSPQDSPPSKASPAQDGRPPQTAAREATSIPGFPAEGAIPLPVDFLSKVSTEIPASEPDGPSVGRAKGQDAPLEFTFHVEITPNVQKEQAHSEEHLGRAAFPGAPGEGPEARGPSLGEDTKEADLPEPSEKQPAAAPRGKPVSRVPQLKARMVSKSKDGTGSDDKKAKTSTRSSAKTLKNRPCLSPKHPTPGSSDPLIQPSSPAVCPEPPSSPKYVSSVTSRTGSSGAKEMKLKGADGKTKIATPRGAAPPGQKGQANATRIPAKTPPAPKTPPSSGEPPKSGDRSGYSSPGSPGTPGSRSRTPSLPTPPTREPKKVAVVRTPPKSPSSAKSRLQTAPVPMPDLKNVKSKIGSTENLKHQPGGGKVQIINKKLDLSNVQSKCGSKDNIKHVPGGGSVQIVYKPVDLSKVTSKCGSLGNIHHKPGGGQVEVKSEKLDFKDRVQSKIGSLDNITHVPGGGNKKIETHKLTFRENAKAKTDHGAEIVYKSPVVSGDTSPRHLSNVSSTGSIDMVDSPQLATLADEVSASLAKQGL
Method: (§1) Pick one brain section for each type and air-dry in hood. A solution of diluted F-18 labeled tracer (40 μCi/mL, 500 μL) which was obtained from the dilution of F-18 tracer with 1×PBS containing 2.5% EtOH and 2.5% DMSO was applied onto each slides to cover the whole tissue section. The resulting slides were incubated at room temperature for 90 minutes, drained, and placed onto a slide holder. The slides were then washed sequentially with 1×PBS for 1 min; 70% EtOH in 1×PBS for 2 min; 30% EtOH in 1×PBS for 2 min; and 1×PBS for 1 min. The slides were dried in the hood for 30 min, and then placed on Fuji imaging plates and exposed overnight. The imaging plates were then scanned and the signal was measured using Fuji software to produce an autoradiography image of the brain section. (PBS—Phosphate Buffer Saline) Protocol for Synthetic Beta-amyloid and Tau Kds
Various concentrations solution of F-18 labeled and its parent cold compound in 1×PBS containing 5% Ethanol and 5% DMSO (pH 7.4) were incubated with synthetic beta-Amyloid or synthetic tau at room temperature in glass tubes for 90 min. The reaction mixture in each tube was filtered under vacuum through a microfiber filter. Each tube was washed with a solution of 20% EtOH in PBS. The PBS wash solution was filtered under vacuum through the filters. Each filter was then washed with a solution of 20% EtOH in PBS and then placed into a gamma counter vial for CPM counting. The data obtained was plotted for Kd determination.

[10] = Mouse and rat brain microPET imaging (brain uptake); type: in vivo; conditions: rats and mice
Method: Mouse and Rat Brain microPET Imaging
Wild type mice and rats were injected intravenously with the candidate tracers. Mice (weight range 25-45 g) were injected with doses between 180 and 300 μCi in 200 uL of saline solution. Rats (weight range 300-400 g) were injected with doses between 300 and 500 μCi of tracer in 400 μL of saline solution. Anesthesia was induced and maintained with Isoflurane. CT and PET scans were performed with a MM INVEON scanner (SIEMENS™). Acquisition for CT images preceded PET scanning and lasted 5 minutes. Only several minutes after the beginning of the PET acquisition, the radioactive dose was injected into the animal through the tail vein. Images were generated as dynamic scans that typically lasted 30 minutes. The initial image analysis consisted of determining whether there was uptake of the tracer in the brain which would establish its ability to cross the blood-brain barrier. All measurements were performed at the time point of 5 minutes following the injection of the tracer. The degree of uptake in the brain was estimated relative to the uptake of the traces in the region of neck muscles. The ratio between the percentage of injected dose per gram in the brain and that of the muscular neck region was provided as an estimate of brain uptake.

[11] = test system: human AD brain slices; assay: Human AD brain section autoradiography with F-18 tracer; type: binding; conditions: for GM Intensity (comp. with W372): compared with W372; for Tx/tau/amyloid correlation: tracer signal vs tau and amyloid load
From the text: Furthermore, the selectivity can be evaluated in brains containing only Aβ plaques/no tau aggregates, Aβ plaques/and tau aggregates, and control brains. Unfortunately, there are no AD brains with only tau and no Aβ present. By testing radiolabeled tracers in these brain sections, one can more quantitative evaluate the relative binding strength (signal strength) and selectivity of various test compounds as they all contain the same radioactive tracer. For examples, if a test tracer binds only to tau, and not amyloid, it should show no signal in the Aβ plaques only brain sections. If a compound binds only to amyloid, it should show uptake in both types of brains. The difficulty of identifying and further quantifying selective compounds lies in the relative abundance of amyloid vs. tau, which is difficult to measure.
Human AD Brain Section Autoradiography
5 micron thick human AD brain slices were first examined using antibodies for Aβ and Tau to determine whether the tested human brain contains Aβ and Tau. Thus, three types of human brain slices were selected for autoradiography: Aβ+/Tau+; Aβ+/Tau−; and Aβ−/Tau−(control).
The experimental protocol is as follows:
as §1

[12] = biological target: T4, Aβ plaques (Homo sapiens, UniProt P05067); assay: Fluorescent compound staining on human AD brain sections (β-amyloid IHC double labeling); type: binding; conditions: Table 3 benzimidazoles; 100 uM compound; qualitative rating 1+ to 4+ / + to +++
T4 construct: Native forms of tau (various isoforms, hyperphosphorylated) and amyloid aggregates are present in brain sections; from tissue; host or cells: human AD brain, frozen frontal lobe sections
T4 sequence (P05067 672-713 limits assumed): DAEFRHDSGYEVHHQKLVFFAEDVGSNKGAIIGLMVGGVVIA
From the text: (§2) Native forms of tau (various isoforms, hyperphosphorylated) and amyloid aggregates are present in brain sections and therefore preferred for compound testing. Using the self-fluorescence of a test compound can give an indication of whether the compound binds to tau tangles/PHFs and/or amyloid plaques. This is further confirmed by immunostaining with Aβ and tau antibodies and overlaying the images. […] However, it is possible to “rate” the signal strength qualitatively and distinguish compounds that show binding to these aggregates.
(§3) In one of the embodiments of the present invention, the self-fluorescence of the compound of formula (I) is used to determine whether the compound binds to tau/amyloid in the brain sections and to give it a qualitative rating. The next step is to proceed to the autoradiography using different brain types for further evaluation and quantitation.
(§4) Tau fluorescent compounds staining on human brain sections (Double or triple labeled with tau and β-amyloid Immunohistochemistry (IHC))
(§5) Serial sections (6 μm thick) from OCT-embedded frozen blocks of front lobe were used for staining (OCT—optimal cutting temperature). After fixation and quenching of autofluorescence, tissue sections were incubated with in 100 μM of tau compound in 50% ethanol PBS for 60 min. Then sections were dipped briefly into water, rinsed in PBS, blocked with 5% normal horse serum in PBS for 1 hour at room temperature. After blocking, the tissue was incubated with tau or β-amyloid primary antibody at 4° C. overnight in a humid chamber. Next day, the sections were washed with PBS and then incubated with secondary antibody for 1 hour.

[13] = test system: AD brain sections; assay: Fluorescent compound staining on human AD brain sections (self-fluorescence, overall binding); conditions: for binding of fluorescent compound to AD brain sections confirmed by immunostaining with tau or Aβ antibodies: figure legends, double labeling at 100 uM; for Brain Section Staining: fluorescence: Table 1 quinolines, 100 uM compound
From the text: as §2, §3, §4, §5

[14] = test system: tau aggregates; assay: Fluorescent compound staining on human AD brain sections (tau IHC double labeling); type: binding; conditions: Table 2 acetylenes; 100 uM compound; qualitative rating + to ++++ or words
From the text: as §2, §3, §4, §5

Chain of AchE (P22303 32-614): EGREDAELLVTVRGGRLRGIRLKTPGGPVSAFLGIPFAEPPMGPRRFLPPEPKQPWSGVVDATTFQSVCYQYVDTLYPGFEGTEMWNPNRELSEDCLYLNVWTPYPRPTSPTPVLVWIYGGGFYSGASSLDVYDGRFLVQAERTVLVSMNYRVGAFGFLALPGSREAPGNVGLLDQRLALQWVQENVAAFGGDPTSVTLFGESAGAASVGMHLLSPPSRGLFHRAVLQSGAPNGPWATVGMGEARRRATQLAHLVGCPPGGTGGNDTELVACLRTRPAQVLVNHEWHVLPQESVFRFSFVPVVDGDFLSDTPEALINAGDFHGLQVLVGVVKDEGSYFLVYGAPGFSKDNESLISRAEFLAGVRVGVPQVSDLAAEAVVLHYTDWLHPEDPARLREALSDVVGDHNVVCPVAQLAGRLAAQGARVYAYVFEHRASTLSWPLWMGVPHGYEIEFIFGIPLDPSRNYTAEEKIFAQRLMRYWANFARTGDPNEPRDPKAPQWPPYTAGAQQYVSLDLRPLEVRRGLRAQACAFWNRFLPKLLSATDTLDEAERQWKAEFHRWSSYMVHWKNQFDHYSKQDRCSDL

For FC1CCN(c2ccn3c(n2)nc2ccccc23)CC1 [Compound T777, 2-(4-fluoropiperidin-1-yl)benzo[4,5]imidazo[1,2-a]pyrimidine], the IC50 [1] was 3000 nM, the inhibition at 1 µM [2] was 0% and the “selectivity (tau/Ab)” value [3] was 25×. The “CNS selectivity panel: Bombesin BB3” value [4] was “Bombesin BB3 (49%)”, the “CNS selectivity panel: Norepinephrine transp.” value ([5]; 10 uM) was “transp. (42%)” and the “CNS selectivity panel: Monoamine transp.” value ([6]; 10 uM) was “transp. (49%)”. The “human hepatocytes (stability)” value [7] was “not stable (polar metabolites)”, the inhibition at 1 µM [8] was 9% and the Kd ([9]; Scheme 6 table) was 19 nM. For the same molecule, the Brain uptake [10] was “yes (4 rats, 4 mice)”, the “GM Intensity (comp. with W372)” value [11] was 9% and the Tx/tau/amyloid correlation [11] was “yes”.

In the case of FCCC1CCN(c2ccn3c(n2)nc2ccccc23)CC1 [Compound T808, 2-(4-(2-fluoroethyl)piperidin-1-yl)benzo[4,5]imidazo[1,2-a]pyrimidine], the IC50 [1] is reported as 3000 nM, the inhibition at 1 µM [2] is reported as 29% and the “selectivity (tau/Ab)” value [3] is reported as 27×. For the same molecule, the “CNS selectivity panel: Bombesin BB3” value [4] was “Bombesin BB3 (<20%)”, the IC50 [5] was 820 nM and the IC50 [6] was 2700 nM. The “human hepatocytes (stability)” value [7] was “stable”, the inhibition at 1 µM [8] was 22% and the Kd ([9]; Scheme 6 table) was 22 nM. The Brain uptake [10] was “yes (4 rats, 5 mice)”, the “GM Intensity (comp. with W372)” value [11] was 18% and the Tx/tau/amyloid correlation [11] was “yes”.

In the case of CN(C)c1ccc(-c2ccc(-c3nc4ccccc4n3CCF)cc2)cc1 [Compound T543, 4′-(1-(2-Fluoroethyl)-1H-benzo[d]imidazol-2-yl)-N,N-dimethyl-[1,1′-biphenyl]-4-amine], the “Brain Section Staining: Aβ” value [12] is reported as “no binding” and the “binding of fluorescent compound to AD brain sections confirmed by immunostaining with tau or Aβ antibodies” value (“binding of fluorescent compound” for short) [13] is reported as “binding”.

In the case of CN(C)c1ccc(C#Cc2nc3ccccc3n2CCF)cc1 [Compound T482, 4-((1-(2-Fluoroethyl)-1H-benzo[d]imidazol-2-yl)ethynyl)-N,N-dimethylaniline], the “Brain Section Staining: tau” value [14] is reported as “Mostly binds to Tau” and the “binding of fluorescent compound” value [13] is reported as “total tau binding”.

In the case of COc1ccc2nc3cc(-c4ccc(F)nc4)ccn3c2c1 [Compound T663, 3-(6-Fluoropyridin-3-yl)-8-methoxybenzo[4,5]imidazo[1,2-a]pyridine], the Kd ([9]; Scheme 5 table) is reported as 105 nM.

In the case of c1ccc2nc(-c3ccncc3)ccc2c1 [Compound T123, 2-(Pyridin-4-yl)quinoline], the “Brain Section Staining: fluorescence” value [13] is reported as “No fluorescence is detected at 100 uM”.

With CNc1ccc(-c2ccn3c(n2)nc2ccccc23)cc1.O=C(O)C(F)(F)F.O=C(O)C(F)(F)F [Compound T522, 4-(Benzo[4,5]imidazo[1,2-a]pyrimidin-2-yl)-N-methylaniline bistrifluoracetate] the “binding of fluorescent compound” value [13] was “total binding”.

In the case of CN1CCN(c2ccc(-c3cc(F)c4ccccc4n3)cc2)CC1 [Compound T559], the “Brain Section Staining: fluorescence” value [13] is reported as “No fluorescence”.

In the case of FCCOCCOCCOc1ccc2nc(-c3ccc(N4CCOCC4)nc3)ccc2c1 [Compound T539, 4-(5-(6-(2-(2-(2-Fluoroethoxy)ethoxy)ethoxy)quinolin-2-yl)pyridin-2-yl)morpholine], the “binding of fluorescent compound” value [13] is reported as “binding”.

With FCCOCCOCCn1c(C#Cc2cnc3[nH]ccc3c2)nc2ccccc21.O=C(O)C(F)(F)F [Compound T527] the “binding of fluorescent compound” value [13] was “binding”.
